Test: Pharmacokinetic study in neutropenic infected mice

Cc1c(CN(C)C(=O)/C=C/c2cnc3c(c2)CC[C@H](N)C(=O)N3)oc2ccccc12 [(S)-11, (S,E)-3-(7-amino-8-oxo-6,7,8,9-tetrahydro-5H-pyrido[2,3-b]azepin-3-yl)-N-methyl-N-((3-methylbenzofuran-2-yl)methyl)acrylamide]
AUClast (PLASMA, 75 mg/kg IV): 45400 ng·h/mL
CL (PLASMA, 75 mg/kg IV): 26.9 mL/min/kg
Cmax (PLASMA, 75 mg/kg IV): 34600 ng/mL
AUClast (PLASMA, 100 mg/kg IV): 69800 ng·h/mL
CL (PLASMA, 100 mg/kg IV): 23.5 mL/min/kg
Cmax (PLASMA, 100 mg/kg IV): 47300 ng/mL
AUClast (THIGH, 75 mg/kg IV): 65200 ng·h/mL
CL (THIGH, 75 mg/kg IV): 18.9 mL/min/kg
Cmax (THIGH, 75 mg/kg IV): 33.0 µg/g
AUClast (THIGH, 100 mg/kg IV): 112000 ng·h/mL
CL (THIGH, 100 mg/kg IV): 14.7 mL/min/kg
Cmax (THIGH, 100 mg/kg IV): 60.2 µg/g
